{"source": "paper PMC8556375", "about": "“Binding interaction of a ring-hydroxylating dioxygenase with fluoranthene in Pseudomonas aeruginosa DN1” (Scientific Reports, 2021)", "biological_target": "T1, RHD alpha subunit (RhdA, RS30940) (Pseudomonas aeruginosa, UniProt Q9HTF4)", "T1 construct": "gene gbcA; alpha subunit alone, 428 residues, His-tagged, pET-28a (NdeI/EcoRI), E. coli BL21 Star (DE3); no tag removal told", "T1 sequence (Q9HTF4 1-429)": "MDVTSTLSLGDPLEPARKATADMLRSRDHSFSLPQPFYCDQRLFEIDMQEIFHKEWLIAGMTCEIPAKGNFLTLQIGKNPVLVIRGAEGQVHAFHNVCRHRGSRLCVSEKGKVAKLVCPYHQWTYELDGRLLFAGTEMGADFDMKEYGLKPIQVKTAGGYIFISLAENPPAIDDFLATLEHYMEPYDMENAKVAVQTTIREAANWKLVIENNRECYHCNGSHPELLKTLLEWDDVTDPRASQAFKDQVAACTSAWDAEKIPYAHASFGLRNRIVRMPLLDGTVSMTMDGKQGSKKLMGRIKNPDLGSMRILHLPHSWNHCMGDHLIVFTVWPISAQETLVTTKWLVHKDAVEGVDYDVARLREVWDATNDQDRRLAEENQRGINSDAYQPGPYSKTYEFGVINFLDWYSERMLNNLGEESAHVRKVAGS", "test": "intrinsic tryptophan fluorescence quenching (Stern-Volmer)", "format": "binding", "conditions": "phosphate buffer pH 7.5; 5.0 x 10^-6 mol/L protein; 298, 304 and 310 K; excitation 278 nm"}
{"smiles": "c1ccc2c(c1)-c1cccc3cccc-2c13", "note": "[fluoranthene]", "values": [{"measurement": "Stern-Volmer parameters", "value": "intrinsic fluorescence of RHD alpha subunit could be quenched by fluoranthene"}]}
